ChEMBL document CHEMBL1201862, “PubChem BioAssay data set” (2004)
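Each compound was tested at five concentrations against cells in 96-well plates for 48 hours. Here, GI50 denotes the concentration required for 50% inhibition of growth.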 Calls of active or inactive are those of the source. No stated cut-off is given here; in the data, active = GI50 up to about 1.1 µM and inactive = higher.

What was measured:
Assay in all cases: DTP human tumour cell line panel, 48 h
[1] = tested on: A498
[2] = tested on: A549
[3] = tested on: BT-549
[4] = tested on: HCC 2998
[5] = tested on: HL-60
[6] = tested on: K562
[7] = tested on: KM12
[8] = tested on: MDA-N
[9] = tested on: NCI-H226
[10] = tested on: NCI-H522
[11] = tested on: OVCAR-3
[12] = tested on: OVCAR-8
[13] = tested on: RXF 393
[14] = tested on: SK-MEL-28
[15] = tested on: SK-MEL-5
[16] = tested on: SK-OV-3
[17] = tested on: SN12C
[18] = tested on: U-251
[19] = tested on: UACC-257
[20] = tested on: UO-31

CCOC(=O)C(Cc1cccn1C(=O)OC(C)(C)C)[N+](=O)[O-] (configuration not stated)
GI50 [1]: 23.5 µM (inactive)
GI50 [2]: 32 µM (inactive)
GI50 [3]: 30.8 µM (inactive)
GI50 [4]: 21 µM (inactive)
GI50 [5]: 21.1 µM (inactive)
GI50 [6]: 24.7 µM (inactive)
GI50 [7]: 22.8 µM (inactive)
GI50 [8]: 26.7 µM (inactive)
GI50 [9]: 26.1 µM (inactive)
GI50 [10]: 19.6 µM (inactive)
GI50 [11]: 32.1 µM (inactive)
GI50 [12]: 31.7 µM (inactive)
GI50 [13]: 17.6 µM (inactive)
GI50 [14]: 27.4 µM (inactive)
GI50 [15]: 21.2 µM (inactive)
GI50 [16]: > 100 µM (inactive)
GI50 [17]: 23.9 µM (inactive)
GI50 [18]: 20.8 µM (inactive)
GI50 [19]: 28.3 µM (inactive)
GI50 [20]: 21.2 µM (inactive)

Cc1cc(C)c2c(c1)C/C(=C\c1ccccc1C(=O)O)C2=O
GI50 [1]: 51.5 µM (inactive)
GI50 [2]: 68.4 µM (inactive)
GI50 [3]: 29.9 µM (inactive)
GI50 [4]: 33.5 µM (inactive)
GI50 [5]: > 100 µM (inactive)
GI50 [6]: > 100 µM (inactive)
GI50 [7]: > 100 µM (inactive)
GI50 [8]: > 100 µM (inactive)
GI50 [9]: 56.9 µM (inactive)
GI50 [10]: 66.2 µM (inactive)
GI50 [11]: 23.7 µM (inactive)
GI50 [12]: 57 µM (inactive)
GI50 [13]: 51.9 µM (inactive)
GI50 [14]: > 100 µM (inactive)
GI50 [15]: 82.4 µM (inactive)
GI50 [17]: > 100 µM (inactive)
GI50 [18]: 7.46 µM (inactive)
GI50 [19]: > 100 µM (inactive)
GI50 [20]: 73.3 µM (inactive)

NC1=NCCN1CC(=O)O [CYCLOCREATINE]
GI50 [1]: > 1000 µM (inactive)
GI50 [2]: > 1000 µM (inactive)
GI50 [3]: > 1000 µM (inactive)
GI50 [4]: > 1000 µM (inactive)
GI50 [5]: > 1000 µM (inactive)
GI50 [6]: > 1000 µM (inactive)
GI50 [7]: > 10000 µM (inactive)
GI50 [8]: > 10000 µM (inactive)
GI50 [9]: > 1000 µM (inactive)
GI50 [10]: > 10000 µM (inactive)
GI50 [11]: > 1000 µM (inactive)
GI50 [12]: > 1000 µM (inactive)
GI50 [13]: > 1000 µM (inactive)
GI50 [14]: > 1000 µM (inactive)
GI50 [15]: > 1000 µM (inactive)
GI50 [16]: > 1000 µM (inactive)
GI50 [17]: > 1000 µM (inactive)
GI50 [18]: > 1000 µM (inactive)
GI50 [19]: > 1000 µM (inactive)
GI50 [20]: > 1000 µM (inactive)

CCOC(=O)Oc1cc2c(c(OC)c1OC)-c1ccc(SC)c(=O)cc1C(NC(=O)C(F)(F)F)CC2 (configuration not stated)
GI50 [1]: 0.00133 µM (active)
GI50 [2]: 0.00555 µM (active)
GI50 [3]: 0.1 µM (active)
GI50 [4]: 0.0435 µM (active)
GI50 [5]: < 0.001 µM (active)
GI50 [6]: < 0.001 µM (active)
GI50 [7]: 0.00258 µM (active)
GI50 [8]: < 0.001 µM (active)
GI50 [9]: 0.00106 µM (active)
GI50 [10]: < 0.001 µM (active)
GI50 [11]: < 0.001 µM (active)
GI50 [12]: 0.0015 µM (active)
GI50 [13]: < 0.001 µM (active)
GI50 [14]: < 0.001 µM (active)
GI50 [15]: < 0.001 µM (active)
GI50 [16]: < 0.001 µM (active)
GI50 [17]: 0.00199 µM (active)
GI50 [18]: 0.00145 µM (active)
GI50 [19]: 0.00223 µM (active)
GI50 [20]: 0.244 µM (active)

CN(CCNC(=O)c1cn(C)c2c1ccc1cc(Cl)ccc12)CCNC(=O)c1cn(C)c2c1ccc1cc(Cl)ccc12
GI50 [1]: 3.71 µM (inactive)
GI50 [2]: 1.92 µM (inactive)
GI50 [3]: 3.43 µM (inactive)
GI50 [4]: 1.49 µM (inactive)
GI50 [5]: 3.26 µM (inactive)
GI50 [6]: 5.96 µM (inactive)
GI50 [7]: 1.67 µM (inactive)
GI50 [8]: 1.95 µM (inactive)
GI50 [9]: 25.9 µM (inactive)
GI50 [10]: 1.85 µM (inactive)
GI50 [11]: 2.4 µM (inactive)
GI50 [12]: 6 µM (inactive)
GI50 [13]: 1.57 µM (inactive)
GI50 [14]: 5.85 µM (inactive)
GI50 [15]: 10.9 µM (inactive)
GI50 [16]: 1.56 µM (inactive)
GI50 [17]: 1.78 µM (inactive)
GI50 [18]: 7.59 µM (inactive)
GI50 [19]: 6.38 µM (inactive)
GI50 [20]: 1.53 µM (inactive)

COC(=O)C(COC(=O)/C=C/c1ccc(OC(C)=O)c(OC(C)=O)c1)NC(=O)/C=C/c1ccc(OC(C)=O)c(OC(C)=O)c1 (configuration not stated)
GI50 [1]: > 100 µM (inactive)
GI50 [2]: 40.9 µM (inactive)
GI50 [3]: 25.2 µM (inactive)
GI50 [4]: 19.4 µM (inactive)
GI50 [5]: 25.2 µM (inactive)
GI50 [6]: > 100 µM (inactive)
GI50 [7]: 17.6 µM (inactive)
GI50 [8]: 20.5 µM (inactive)
GI50 [9]: 36.2 µM (inactive)
GI50 [10]: 18.1 µM (inactive)
GI50 [11]: 15.4 µM (inactive)
GI50 [12]: 30.4 µM (inactive)
GI50 [13]: 37.1 µM (inactive)
GI50 [14]: 26.2 µM (inactive)
GI50 [15]: 14.7 µM (inactive)
GI50 [16]: 67 µM (inactive)
GI50 [17]: 19.6 µM (inactive)
GI50 [18]: 28.4 µM (inactive)
GI50 [19]: 44.4 µM (inactive)

O=C(O)c1c2c(cc3c1CC1(Cc4ccccc4C1)C3)CCC2
GI50 [1]: > 100 µM (inactive)
GI50 [2]: 35.6 µM (inactive)
GI50 [3]: 20.8 µM (inactive)
GI50 [4]: > 100 µM (inactive)
GI50 [5]: 41.4 µM (inactive)
GI50 [6]: 59.3 µM (inactive)
GI50 [7]: 59.3 µM (inactive)
GI50 [8]: > 100 µM (inactive)
GI50 [9]: > 100 µM (inactive)
GI50 [10]: 49.1 µM (inactive)
GI50 [11]: 68.1 µM (inactive)
GI50 [12]: 63.1 µM (inactive)
GI50 [13]: > 100 µM (inactive)
GI50 [14]: > 100 µM (inactive)
GI50 [15]: 59.7 µM (inactive)
GI50 [16]: > 100 µM (inactive)
GI50 [17]: 67.6 µM (inactive)
GI50 [18]: 42.6 µM (inactive)
GI50 [19]: > 100 µM (inactive)
GI50 [20]: 30.3 µM (inactive)

Cc1nc2ccccc2n1Cc1ccc(NC(=S)NC2CCCCC2)cc1
GI50 [1]: 33.6 µM (inactive)
GI50 [2]: 17.4 µM (inactive)
GI50 [3]: 15.4 µM (inactive)
GI50 [4]: 36.6 µM (inactive)
GI50 [5]: 25.6 µM (inactive)
GI50 [6]: 14.7 µM (inactive)
GI50 [7]: 24.3 µM (inactive)
GI50 [8]: 5.79 µM (inactive)
GI50 [9]: 24.9 µM (inactive)
GI50 [10]: 8.34 µM (inactive)
GI50 [11]: 10.8 µM (inactive)
GI50 [12]: 30.9 µM (inactive)
GI50 [13]: 23.8 µM (inactive)
GI50 [14]: 29.7 µM (inactive)
GI50 [15]: 4.14 µM (inactive)
GI50 [16]: > 92.7 µM (inactive)
GI50 [17]: 7.03 µM (inactive)
GI50 [18]: 32.6 µM (inactive)
GI50 [19]: 13.5 µM (inactive)
GI50 [20]: 41 µM (inactive)

CC(C)C(/C=C/c1ccccc1)=N\NC(=S)NN
GI50 [1]: > 100 µM (inactive)
GI50 [2]: 51.1 µM (inactive)
GI50 [3]: > 96.2 µM (inactive)
GI50 [4]: 99.1 µM (inactive)
GI50 [5]: 19.4 µM (inactive)
GI50 [6]: 24 µM (inactive)
GI50 [7]: > 86.1 µM (inactive)
GI50 [8]: 26.6 µM (inactive)
GI50 [9]: > 70.3 µM (inactive)
GI50 [10]: 16.7 µM (inactive)
GI50 [11]: 21.3 µM (inactive)
GI50 [12]: 45.2 µM (inactive)
GI50 [13]: 99.8 µM (inactive)
GI50 [14]: > 100 µM (inactive)
GI50 [15]: 33 µM (inactive)
GI50 [16]: > 94.4 µM (inactive)
GI50 [17]: > 100 µM (inactive)
GI50 [18]: > 67.9 µM (inactive)
GI50 [19]: > 100 µM (inactive)
GI50 [20]: 32.3 µM (inactive)

COc1cc(C)cc2c1c(=O)c1ccccc1n2C
GI50 [1]: 43.3 µM (inactive)
GI50 [2]: 40.4 µM (inactive)
GI50 [3]: 37.9 µM (inactive)
GI50 [4]: 45.7 µM (inactive)
GI50 [5]: 33.7 µM (inactive)
GI50 [6]: 18.2 µM (inactive)
GI50 [7]: 34.4 µM (inactive)
GI50 [8]: 19 µM (inactive)
GI50 [9]: 33.5 µM (inactive)
GI50 [10]: 34 µM (inactive)
GI50 [11]: 37.6 µM (inactive)
GI50 [12]: 40.1 µM (inactive)
GI50 [13]: 28.3 µM (inactive)
GI50 [14]: 42.6 µM (inactive)
GI50 [15]: 25 µM (inactive)
GI50 [16]: 60 µM (inactive)
GI50 [17]: 37.5 µM (inactive)
GI50 [18]: 33.9 µM (inactive)
GI50 [19]: 40.2 µM (inactive)
